# Assays:
# [1] = tested on: S-SMase secretion by HUVECs; experiment: Cytokine regulation of S-SMase secretion by HUVECs (SMase activity in conditioned media); type: cell-based, human; details: 18 h, IL-1β 5 ng/ml, interferon-γ 1000 units/ml
# Procedure: Conditioned media (FIG. 23A) and cell homogenates (FIG. 23B) from these cells were then assayed for SMase activity in the presence or absence of 0.1 mM ZnCl2, respectively.
# The cells were then washed 3 times with PBS and incubated for 24 h in 1 ml fresh serum-free media containing 0.2%6 BSA. This 24-h conditioned medium was collected for SMase assays.
# Harvesting of Cells and Conditioned Media—Following the incubations described above and in the figure legends, cells were placed on ice and the serum-free conditioned media was removed. The cells were washed two times with ice-cold 0.25 M sucrose and scraped into 0.3 ml and 3.0 ml of this sucrose solution per 35-mm and 100-mm dishes, respectively. Unless indicated otherwise, the scraped cells were disrupted by sonication on ice using three 5-second bursts (Branson 450 Sonifier), and the cellular homogenates were assayed for total protein by the method of Lowry et al. (22) and for SMase activity as described below. The conditioned media were spun at 800×g for 5 min to pellet any contaminating cells and concentrated six-fold using a Centriprep 30 (Amicon; Beverly, Mass.) concentrator (molecular weight cut off=30,000).
# [2] = tested on: HUVECs; experiment: LDH release from HUVECs; type: cell-based, human; details: IL-1β 5 ng/ml, 18 h
# Procedure: HUVECs were incubated for 18 h in DMEM, 0.2% BSA alone (Con) or containing human recombinant interleukin-1β (5 ng/ml) (IL1β). Conditioned media from these cells were then assayed for SMase activity (FIG. 25A) and LDH activity (FIG. 25B).
# LDH Assay—LDH activity was assayed in medium and cells as reported previously (42) using a kit purchased from Sigma (catalogue #500); the assay measures the unreacted pyruvic acid using a colorometric assay.
# [3] = molecular target: T1, internalized S-SMase (Homo sapiens, UniProt P17405); experiment: SMase activity in homogenates of type A Niemann-Pick fibroblasts after internalization of FLAG-tagged S-SMase; type: biochemical; details: 0.1 mM ZnCl2, sonicated cell homogenates
# T1 construct: FLAG; purchased AMGEN, Boulder, Colo
# T1 sequence (P17405 47-631): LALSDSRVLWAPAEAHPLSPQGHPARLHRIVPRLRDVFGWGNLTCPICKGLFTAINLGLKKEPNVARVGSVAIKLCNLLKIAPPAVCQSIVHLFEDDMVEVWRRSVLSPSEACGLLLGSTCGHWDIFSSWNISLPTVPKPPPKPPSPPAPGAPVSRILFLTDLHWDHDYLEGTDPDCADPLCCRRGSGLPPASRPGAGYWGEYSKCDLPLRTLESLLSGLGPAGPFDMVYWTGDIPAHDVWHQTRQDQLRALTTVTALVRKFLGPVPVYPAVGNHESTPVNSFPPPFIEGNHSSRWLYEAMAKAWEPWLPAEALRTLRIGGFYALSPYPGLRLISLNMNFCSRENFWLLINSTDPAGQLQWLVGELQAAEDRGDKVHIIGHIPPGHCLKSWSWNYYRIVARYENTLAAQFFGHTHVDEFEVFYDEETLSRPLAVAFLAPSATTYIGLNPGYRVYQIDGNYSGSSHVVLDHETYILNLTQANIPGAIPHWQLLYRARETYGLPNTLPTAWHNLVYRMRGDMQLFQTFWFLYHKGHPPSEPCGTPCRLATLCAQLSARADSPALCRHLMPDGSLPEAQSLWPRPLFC
# Procedure: FIG. 17. Zn^2+-dependency of S-SMase after internalization by type A Niemann-Pick cells. Skin fibroblasts from a patient with type A Niemann-Pick disease (NP-A Cells) were grown to 90% confluency in medium supplemented with 10% HI-FBS. The cells were then washed three times with PBS and incubated in serum-free media containing 0.2% BSA and 850 ng immunoaffinity-isolated FLAG-tagged S-SMase (Purified S-SMase)/ml at 37° C. for 16 h. The cell homogenate and incubation medium were then prepared as described in “Experimental Procedures”, and aliquots were assayed for SMase activity in the presence of either 5 mM EDTA (hatched bars) or 0.1 mM ZnCl2 (solid bars) for 2 h at 37° C. at pH 5.0. […]
# SMase Assay—As previously described (Schissel et al., 1996), the standard 200-μl assay mixture consisted of up to 40 μl of sample (conditioned media or homogenized cells; see above) and a volume of assay buffer (0.1 M sodium acetate, pH 5.0) to bring the volume to 160 μl. […] The ceramide spots were scraped and directly counted to quantify [^3H]ceramide. Typically, the assay reactions contained approximately 20 μg of cellular homogenate protein and a volume of conditioned media derived from a quantity of cells equivalent to approximately 50 μg of cellular protein. […]
# [4] = molecular target: T2, S-SMase (Homo sapiens, UniProt P17405); experiment: SMase assay of endothelial cell (HUVEC) conditioned medium; type: biochemical; set-up: endogenous in cells; host or cells: primary HUVEC, 24-h serum-free conditioned medium
# T2 sequence (P17405 47-631): T1 sequence (P17405 47-631)
# Procedure: FIGS. 20A-B. Cultured human endothelial cells secrete abundant amounts of S-SMase.
# Smase Assay—As previously described (15), the standard 200-μl assay mixture consisted of up to 40 μl of sample (conditioned media or homogenized cells; see above, and a volume of assay buffer (0.1 M sodium acetate, pH 5.0) to bring the volume to 160 μl. The reaction was initiated by the addition of 40 μl substrate (50 pmol [^3H]sphingomyelin) in 0.25 M sucrose containing 3% Triton X-100 (final concentration of Triton X-100 in the 200-μl assay mix=0.6%). When added, the final concentrations of EDTA and Zn^2+ were 5 mM and 0.1 mM, respectively, unless indicated otherwise. The assay mixtures were incubated at 37° C. for no longer than 3 h and then extracted by the method of Bligh and Dyer (37); the lower, organic phase was harvested, evaporated under N2, and fractionated by TLC using chloroform:methanol (95:5). The ceramide spots were scraped and directly counted to quantify [^3H]ceramide. Typically, our assay reactions contained approximately 20 μg of cellular homogenate protein and a volume of conditioned media derived from a quantity of cells equivalent to approximately 50 μg of cellular protein.
effect of added Zn2+ on cellular enzymatic activity [3],stimulation of SMase secreted by endothelial cells by exogenous Zn2+ [4],increase of enzymatic activity of S-SMase by Zn2+ ([4]; S-SMase from IL-1β-treated HUVECs),increase of enzymatic activity of S-SMase by Zn2+ ([4]; S-SMase from untreated HUVECs),Molecule,increase of S-SMase activity / secretion (conditioned media) [1],increase in LDH release [2]
–,–,–,–,IL-1β: human recombinant interleukin-1β,~3 fold,60%
failed to increase,two-fold,1.77±0.03 fold,1.78±0.17 fold,"[Cl-].[Cl-].[Zn+2] [Zn^2+, ZnCl2]",–,–
